Laboratory results from patent US8815935B2, “Inhibitors of protein prenyltransferases” (The Regents of the University of California, priority 2008, dated 2014).
“Also recorded” adds a separate entry of the source. Like-named read-outs stand apart in the source and are kept apart here.

Columns and labels:
[1] = system: Rap1 geranylgeranylation in NIH3T3 cells; test: Unprenylated Rap1 immunoblot in NIH3T3 cells; assay type: cell-based; details: 48 hours
Method: The inhibition of GGTase-I catalyzed protein geranylgeranylation was assessed by examining the accumulation of unprenylated Rap1. To measure the level of unprenylated Rap1, cells were cultured in DMEM plus 10% (v/v) FBS overnight, and then DMSO or appropriate inhibitors were added. Incubation was continued for 48 hours. The cells were harvested and lysed in lysis buffer (20 mM Tris-HCl, pH 7.5, 150 mM NaCl, 1 mM EDTA, 1% NP-40 and 1× Protease Inhibitor Cocktail). Whole cell lysates of NIH3T3 cells were electrophoresed on a 12% SDS-PAGE, transferred to nitrocellulose membranes and immunoblotted with the antibody against unprenylated form of Rap1 (Santa Cruz Biotechnology catalog number sc-1482, goat), total-Rap1 (Santa Cruz: sc-65) or actin (Sigma: A4700). Actin was used as a loading control.

Aspc-1 = Aspc-1 cell growth inhibition; assay type: cell-based, human; details: Homo sapiens, ASPC1, 144 h; 6 days, CCK-8, vs DMSO; read-out: IC50, AsPc-1 (Pancreas)
Method: (§1) In FIG. 9-24 in vitro IC50 values for the GGTase I activity are reported. In Tables 7-15 in cell GI50 values for the growth inhibition of a variety of cancer cell lines (e.g., Jurkat, K562, MDA-MB-231, BT474, MCF7, MiaPaCa2, Aspc-1, Panc-1, Capan-2, CFpac-1, and MCF10a) are reported.
(§2) Cell viability was determined by Cell Counting Kit-8 (CCK-8, Dojindo, Kumamoto, Japan) as described previously (31). Cell viability was calculated relative to the DMSO control. Cell cycle profile was analyzed by flow cytometry as described previously (32).

SE-Mk2 = SE-Mk2 cell growth inhibition; assay type: cell-based; details: Homo sapiens, SEMK2, 144 h; 6 days, CCK-8, vs DMSO; read-out: IC50, SE-Mk2 (Blood)
Method: as §2

MCF-7 cells = test: Cell cycle profile by flow cytometry, MCF-7; assay type: cell-based, human; details: 48 hours, FIG. 37B
Method: MCF-7 cells were treated with P61-A6, P61-B6 or DMSO for 72 hours. Cell viability relative to the DMSO control (100% value) is plotted. (B) MCF-7 cells were treated with indicated concentrations (μM) of P61-A6, P61-B6 or DMSO for 48 hours. Cell cycle profiles were monitored by flow cytometry. Percentages of cells in each phase of the cell cycle are indicated by different shades. (C) NIH3T3 cells were transfected with p21^CIP1/WAF1-luciferase or empty vector. Cells were treated with P61-A6 or P61-B6 compound at indicated concentrations or with DMSO for 48 hours and luciferase assay was performed. Data represent the mean+/−S.D. of two measurements from two independent experiments. *, P<0.05; **, P<0.005 compared with the value for DMSO.
as §2

Panc-1 = Panc-1 cell growth inhibition; assay type: cell-based, human; details: Homo sapiens, PANC-1, 72 h; 3 days, CCK-8, vs DMSO; read-out: IC50, PANC-1 (Pancreas)
Method: as §1
Panc-1 cells (Pancreatic cancer cell line) and Jurkat cells (T-cell leukemia) were treated with 12.5 μM of P5-H6 or 12.5 μM of mP5-H6a for 72 hours. The cell number was counted as described in Example 5.
as §2

[2] = system: H-Ras farnesylation in NIH3T3 cells; test: H-Ras mobility shift immunoblot in NIH3T3 cells; assay type: cell-based; details: 48 hours
Method: K562 cells were treated with modified compounds for 72 hours and then cell number was counted. IC50 values of cell viability relative to the DMSO were measured. […] Data represent the mean+/−S.D. of two measurements from two independent experiments. *, P<0.05 compared with the value for DMSO. […] Whole cell lysates from cells treated with DMSO, P5-H6, P61-A6, GGTI (GGTI-298), FTI (BMS-225975) or RabGGTI (P49-F6) for 48 hours were prepared and processed for immunoblot analysis using antibody against unprenylated form of Rap1 (C: upper panel), Total-Rap1 (C: middle panel), H-Ras (D: upper panel), Rab5b (E: upper panel) or actin (C, D, and E: lower panel). The immunoblots shown represent two independent experiments for each treatment.
This was examined by using a farnesylated protein H-Ras.

GGTase-I = molecular target: T1, GGTase-I (Rattus norvegicus, UniProt P53610+Q04631); test: In vitro GGTase-I enzyme assay (IC50, kinetics); assay type: biochemical; details: for IC50: read-out: In vitro (enzyme assay) IC50, GGTase I
T1 construct: purchased JENA BIOSCIENCE
Outline: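 Rat GGTase-I (50 nM) with 0.5 μM [3H]-GGPP and 2 μM MBP-RhoA in Tris-HCl pH 7.5, MgCl2, ZnCl2, DTT, 2.5% DMSO, 10 min at 30 °C; radiolabel incorporation by TCA filter binding and scintillation. Kinetics: 5 min reactions varying GGPP or RhoA at fixed other components.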

MiaPaCa2 = test: Cell cycle distribution by flow cytometry, MiaPaCa2; assay type: cell-based, human; details: 10 μM, 48 hours
Method: as §2

Row | IC50 (Aspc-1) [µM] | IC50 (Panc-1) [µM] | IC50 (GGTase-I; Tables 3, 5, 7) [µM] | specificity among GGTase-I, FTase and GGTase-II (GGTase-I; FIGS. 20A-20C, varying concentrations) | Ki (GGTase-I; Michaelis-Menten analysis) [µM] | IC50 (GGTase-I; Tables 5, 14) [µM] | SMILES | appearance of the unprenylated (unprocessed) Rap1 band [1] | appearance of the unprenylated Rap1 band at 2.5 μM ([1]; 2.5 μM) | IC50 (SE-Mk2) [µM] | cell cycle effect in MCF-7 (MCF-7 cells) | mobility shift of H-Ras (protein farnesylation) [2] | Percent G2/M, MiaPaCa2 (MiaPaCa2; DMSO 14.12) [%] | Percent G0/G1, MiaPaCa2 (MiaPaCa2; DMSO 77.85) [%] | mode of GGTase-I inhibition with respect to GGPP (GGTase-I; varying GGPP, fixed RhoA) | mode of GGTase-I inhibition with respect to the protein substrate (RhoA) (GGTase-I; varying RhoA, fixed GGPP)
1 | 11.7 | 5.2 | 1 | – | – | – | Cc1ccccc1S(=O)(=O)N1C(c2ccc(Cl)cc2)C(C(=O)NC(Cc2ccccc2)C(N)=O)=CC1C(C)(C)C (stereo not drawn) [P61-A6] | in a dose dependent manner; also recorded: inhibits Rap1 geranylgeranylation | observed | 6.4 | dose-dependent enrichment of G1 phase cells | no such mobility shift | 10.81 | 87.98 | – | –
2 | – | – | – | specifically inhibit GGTase I | 0.187 ± 0.013 | 0.313 | Cc1ccccc1S(=O)(=O)N1[C@@H](c2cccc(Cl)c2)C(C(=O)O)=CC[C@H]1c1ccc(Cl)cc1 [P3-E5] | – | – | – | – | – | – | – | do not compete with GGPP; also recorded: uncompetitive inhibitors | compete with a substrate protein; also recorded: competitive inhibitors
